Source: patent publication US10065990B2, “Cyclic peptide compound, and preparation method, pharmaceutical composition and use thereof” (HANGZHOU GUANYU BIO-MEDICAL CO., LTD, priority 2013, dated 2018)
Read-outs that look alike come from different tables or passages of the source.

Legend:
[1] = target: T1, HDAC7 (Homo sapiens, UniProt Q8WUI4); assay: HDAC biochemical activity measurement (fluorescent substrate deacetylation);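 on all read-outs here: fluorogenic deacetylation assay using acetyl-lysine substrate at 20 µM, enzyme and compound incubated 30 min at 37 °C, then developer added, fluorescence read at 360/460 nm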; details: for IC50 HDAC7: 37° C. 30 minutes
T1 sequence (Q8WUI4 1-952): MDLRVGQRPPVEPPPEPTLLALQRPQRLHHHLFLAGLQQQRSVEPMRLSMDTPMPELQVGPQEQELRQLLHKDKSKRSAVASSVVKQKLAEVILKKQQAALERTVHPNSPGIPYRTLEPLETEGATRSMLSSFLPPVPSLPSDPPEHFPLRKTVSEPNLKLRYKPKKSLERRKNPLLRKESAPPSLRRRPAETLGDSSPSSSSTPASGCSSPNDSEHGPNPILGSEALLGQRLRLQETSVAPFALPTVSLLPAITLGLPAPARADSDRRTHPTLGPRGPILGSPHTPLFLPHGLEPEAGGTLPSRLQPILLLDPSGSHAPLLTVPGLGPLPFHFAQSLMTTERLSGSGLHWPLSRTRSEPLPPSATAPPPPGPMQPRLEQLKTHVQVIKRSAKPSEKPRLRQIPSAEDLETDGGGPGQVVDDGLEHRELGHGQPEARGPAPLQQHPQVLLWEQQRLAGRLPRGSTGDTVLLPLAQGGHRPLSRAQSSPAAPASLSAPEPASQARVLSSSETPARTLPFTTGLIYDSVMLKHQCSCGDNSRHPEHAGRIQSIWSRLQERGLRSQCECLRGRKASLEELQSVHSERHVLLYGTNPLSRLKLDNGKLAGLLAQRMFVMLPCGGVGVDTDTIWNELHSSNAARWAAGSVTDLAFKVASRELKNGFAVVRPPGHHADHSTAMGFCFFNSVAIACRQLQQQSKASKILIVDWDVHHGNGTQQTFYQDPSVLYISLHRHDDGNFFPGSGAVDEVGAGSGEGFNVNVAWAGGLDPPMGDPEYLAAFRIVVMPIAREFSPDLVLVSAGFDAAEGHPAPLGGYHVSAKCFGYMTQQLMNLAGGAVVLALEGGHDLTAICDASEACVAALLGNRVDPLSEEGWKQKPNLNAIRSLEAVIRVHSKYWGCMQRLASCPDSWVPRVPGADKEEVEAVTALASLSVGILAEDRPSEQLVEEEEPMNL

[2] = tested on: A549 (human lung cancer cells); assay: MTT cancer cell growth inhibition; assay type: cell-based; details: Homo sapiens, A549, 72 h, MTT, 72 hours incubation, read-out: GI50 A54
Text: (§1) MTT assay principle is yellow MTT can penetrate membrane into the cell, succinic dehydrogenase of the mitochondria in living cells can make exogenous MTT reduction of insoluble in water of blue-violet acicular formazan for crystallization and deposition in the cell, crystallization can be dissolved dimethyl sulfoxide (DMSO) solution, detected its absorbance at 490 nm/570 nm wavelength by enzyme-linked immunosorbent assay, which can reflect the number of cells.
(§2) Using DMEM+10% FBS culture medium or using 1640+10% FBS culture, respectively.
(§3) a) Cells were seeded in 96-well plates with the inoculation of 1500/well, 190 μl/hole, 37° C., 5% of CO2 incubator overnight;
(§4) b) The next day each well was added 10 μl of different drugs. The final concentration of drug was 10^−5˜10^−10M, three parallel holes; 37° C., 5% CO2 culture incubator for 72 hours incubation;
(§5) c) Per well was added 20 μl 5 mg/ml of MTT, 37° C., 5% CO2 culture incubator for 4 hours incubation;
(§6) d) The supernatant was discarded. Each well was added 100 μl of DMSO and oscillation;
(§7) e) 570 nm readings. Calculate cell viability. GI50 calculation based on the results.

[3] = tested on: MCF-7 (human breast cancer cells); assay: MTT cancer cell growth inhibition; assay type: cell-based; details: Homo sapiens, MCF7, 72 h, 72 hours incubation, read-out: GI50 MCF
Text: as §1, §2, §3, §4, §5, §6, §7

[4] = tested on: Huh-7 (human hepatoma cells); assay: MTT cancer cell growth inhibition; assay type: cell-based; details: Homo sapiens, Huh-7, 72 h, MTT, 72 hours incubation, Huh-7 cells; read-out: GI50 Huh-7
Text: as §1, §2, §3, §4, §5, §6, §7

[5] = tested on: SGC-7901 (human gastric cancer cells); assay: MTT cancer cell growth inhibition; assay type: cell-based; details: Homo sapiens, SGC-7901, 72 h, MTT, 72 hours incubation, SGC-7901 cells; read-out: GI50 SGC-7901
Text: as §1, §2, §3, §4, §5, §6, §7

[6] = tested on: Bel-7402 (human hepatoma cells); assay: MTT cancer cell growth inhibition; assay type: cell-based; details: Homo sapiens, Bel-7402, 72 h, MTT, 72 hours incubation, Bel-7402 cells; read-out: GI50 Bel-7402
Text: as §1, §2, §3, §4, §5, §6, §7

[7] = tested on: MOLT-4 (human acute lymphoblastic leukemia cells); assay: MTT cancer cell growth inhibition; assay type: cell-based; details: Homo sapiens, MOLT-4, 72 h, MTT, 72 hours incubation, read-out: GI50 Mol
Text: as §1, §2, §3, §4, §5, §6, §7

[8] = tested on: PANC-1 (Pac-1, human pancreatic cancer cells); assay: MTT cancer cell growth inhibition; assay type: cell-based; details: Homo sapiens, PANC-1, 72 h, MTT, 72 hours incubation, read-out: GI50 PAN
Text: as §1, §2, §3, §4, §5, §6, §7

[9] = tested on: BGC-823 (human gastric cancer cells); assay: MTT cancer cell growth inhibition; assay type: cell-based; details: Homo sapiens, BGC-823, 72 h, MTT, 72 hours incubation, read-out: GI50 BG
Text: as §1, §2, §3, §4, §5, §6, §7

[10] = tested on: DU145 (human prostate cancer cells); assay: MTT cancer cell growth inhibition; assay type: cell-based; details: Homo sapiens, DU-145, 72 h, MTT, 72 hours incubation, read-out: GI50 Du1
Text: as §1, §2, §3, §4, §5, §6, §7

[11] = tested on: H1975 (non-small cell lung adenocarcinoma); assay: MTT cancer cell growth inhibition; assay type: cell-based; details: Homo sapiens, NCI-H1975, 72 h, MTT, 72 hours incubation, H1975 cells; read-out: GI50 H1975
Text: as §1, §2, §3, §4, §5, §6, §7

[12] = tested on: U937 (human leukemia cells); assay: MTT cancer cell growth inhibition; assay type: cell-based; details: Homo sapiens, U-937, 72 h, MTT, 72 hours incubation, read-out: GI50 U93
Text: as §1, §2, §3, §4, §5, §6, §7

[13] = tested on: HCC827 (human non-small cell lung cancer cells); assay: MTT cancer cell growth inhibition; assay type: cell-based; details: Homo sapiens, HCC827, 72 h, MTT, 72 hours incubation, HCC827 cells; read-out: GI50 HCC827
Text: as §1, §2, §3, §4, §5, §6, §7

[14] = tested on: lncap (prostate cancer cells); assay: MTT cancer cell growth inhibition; assay type: cell-based; details: Homo sapiens, LNCaP, 72 h, MTT, 72 hours incubation, read-out: GI50 lnca
Text: as §1, §2, §3, §4, §5, §6, §7

[15] = tested on: HT1080 (human fibrosarcoma cells); assay: MTT cancer cell growth inhibition; assay type: cell-based; details: Homo sapiens, HT-1080, 72 h, MTT, 72 hours incubation, read-out: GI50 HT1
Text: as §1, §2, §3, §4, §5, §6, §7

[16] = tested on: KBM-5 (human chronic myelogenous leukemia); assay: MTT cancer cell growth inhibition; assay type: cell-based; details: Homo sapiens, KBM5, 72 h, MTT, 72 hours incubation, KBM-5 cells; read-out: GI50 KBM-5
Text: as §1, §2, §3, §4, §5, §6, §7

[17] = tested on: KBM5-T315I (human chronic myelogenous leukemia); assay: MTT cancer cell growth inhibition; assay type: cell-based; details: Homo sapiens, 72 h, MTT, 72 hours incubation, KBM5-T315I cells; read-out: GI50 KBM5-T315I
Text: as §1, §2, §3, §4, §5, §6, §7

[18] = tested on: MDA-MB-231 (breast cancer cells); assay: MTT cancer cell growth inhibition; assay type: cell-based; details: Homo sapiens, MDA-MB-231, 72 h, read-out: GI50 MDA-MB-231, MTT, 72 hours incubation, MDA-MB-231 cells
Text: as §1, §2, §3, §4, §5, §6, §7

[19] = tested on: K562 (human leukemia cells); assay: MTT cancer cell growth inhibition; assay type: cell-based; details: Homo sapiens, K562, 72 h, MTT, 72 hours incubation, K562 cells; read-out: GI50 K562
Text: as §1, §2, §3, §4, §5, §6, §7

[20] = tested on: N-87 (human gastric cancer cells); assay: MTT cancer cell growth inhibition; assay type: cell-based; details: Homo sapiens, 72 h, MTT, 72 hours incubation, N-87 cells; read-out: GI50 N-87
Text: as §1, §2, §3, §4, §5, §6, §7

[21] = tested on: Hela (human cervical cancer cells); assay: MTT cancer cell growth inhibition; assay type: cell-based; details: Homo sapiens, HeLa, 72 h, MTT, 72 hours incubation, read-out: GI50 Hela
Text: as §1, §2, §3, §4, §5, §6, §7

SMILES	IC50 HDAC7 [1]	GI50 [4]	GI50 [5]	GI50 [6]	GI50 [11]	GI50 [13]	GI50 [16]	GI50 [17]	GI50 [18]	GI50 [19]	GI50 [20]	GI50 ([2]; A549 cells)	GI50 ([3]; MCF-7 cells)	GI50 ([7]; MOLT-4 cells)	GI50 ([8]; PANC-1 cells)	GI50 ([9]; BGC-823 cells)	GI50 ([10]; DU145 cells)	GI50 ([12]; U937 cells)	GI50 ([14]; lncap cells)	GI50 ([15]; HT1080 cells)	further results
CC(C)=C1NC(=O)c2ccc(F)c(n2)CNC(=O)C[C@@H](/C=C/CCS)OC(=O)[C@H](C(C)C)NC1=O [Compound 138]	no activity	36 nM	72 nM	76 nM	43 nM	22 nM	42 nM	45 nM	52 nM	21 nM	16 nM	–	–	–	–	–	–	–	–	–	GI50 [2]: 40 nM; GI50 [3]: 20 nM; GI50 [7]: 50 nM; GI50 [8]: 30 nM; GI50 [9]: 20 nM; GI50 [10]: 20 nM; GI50 [12]: 20 nM; GI50 [14]: 50 nM; GI50 [15]: 20 nM; GI50 [21]: 60 nM
C/C=C1\NC(=O)c2ccc(C)c(n2)CNC(=O)C[C@@H](/C=C/CCSC(C)=O)OC(=O)[C@H](Cc2ccccc2)NC1=O [Example 68]	no activity	22 nM	29 nM	83 nM	35 nM	83 nM	51 nM	34 nM	22 nM	26 nM	43 nM	–	–	–	–	–	–	–	–	–	GI50 [2]: 20 nM; GI50 [3]: 30 nM; GI50 [7]: 20 nM; GI50 [8]: 80 nM; GI50 [9]: 40 nM; GI50 [10]: 20 nM; GI50 [12]: 30 nM; GI50 [14]: 20 nM; GI50 [15]: 80 nM; GI50 [21]: 50 nM
C/C=C1\NC(=O)c2ccc(SC)c(n2)CNC(=O)C[C@@H](/C=C/CCSC(=O)CC)OC(=O)[C@H](C(C)C)NC1=O [Compound 164]	no activity	95 nM	28 nM	38 nM	81 nM	28 nM	73 nM	47 nM	96 nM	62 nM	41 nM	60 nM	30 nM	50 nM	80 nM	340 nM	50 nM	60 nM	30 nM	20 nM	GI50 ([21]; Hela cells): 20 nM
CSc1cc2nc(c1)C(=O)NC(=C(C)C)C(=O)N[C@@H](C(C)C)C(=O)O[C@H](/C=C/CCSC(C)=O)CC(=O)NC2 [Compound 208]	no activity	26 nM	26 nM	17 nM	35 nM	67 nM	18 nM	49 nM	18 nM	76 nM	56 nM	50 nM	30 nM	40 nM	30 nM	50 nM	40 nM	60 nM	30 nM	70 nM	GI50 ([21]; Hela cells): 80 nM
C/C=C1\NC(=O)c2nc(ccc2SCC)CNC(=O)C[C@@H](/C=C/CCSC(=O)CCCCCC)OC(=O)[C@H](C(C)C)NC1=O [Compound 250]	–	27 nM	63 nM	58 nM	38 nM	45 nM	53 nM	79 nM	21 nM	27 nM	43 nM	40 nM	40 nM	30 nM	30 nM	40 nM	50 nM	80 nM	50 nM	60 nM	IC50 (μM) HDAC7 [1]: no activity; GI50 ([21]; Hela cells): 70 nM
C/C=C1\NC(=O)c2nc(ccc2SC)CNC(=O)C[C@@H](/C=C/CCSC(C)=O)OC(=O)[C@@H](C)NC1=O [Compound 220]	no activity	53 nM	28 nM	55 nM	57 nM	26 nM	83 nM	33 nM	45 nM	83 nM	46 nM	40 nM	20 nM	50 nM	30 nM	30 nM	30 nM	80 nM	60 nM	80 nM	GI50 ([21]; Hela cells): 30 nM
